Experiments:
[1] = system: cell line 2167-9/2160-154 H-1; test: Callus herbicide tolerance, line H-1; assay type: cell-based, maize; conditions: cell line H-1
Procedure: (§1) Tolerant cell line 2167-9/2160-154 S-2 (“S-2”) was characterized to evaluate: (1) the magnitude of sethoxydim tolerance; (2) cross-tolerance of haloxyfop; and (3) the biochemical basis for the tolerance. Callus tissue from S-2 that had been maintained on 10 μM sethoxydim was transferred to media containing up to 100 μM sethoxydim. One-half gram of S-2 tissue was plated on a 7 cm filter paper as a lawn overlaying 50 ml agar-solidified culture medium containing 0, 0.5, 1.0, 2.0, 5.0, 10.0, 50.0 and 100 μM sethoxydim, and cultured for two weeks. Control cell line 2167-9/2160-154 was plated similarly on medium containing the same levels of sethoxydim. The control cell line growth after two weeks was inhibited 50% at 1 μM sethoxydim.
(§2) The tolerant callus cultures were characterized to determine the magnitude of sethoxydim and haloxyfop tolerance. Callus tissue from these lines was evaluated in experiments as described above in the characterization of line 2167-9/2160-154 S-2.

[2] = system: cell line 2167-9/2160-154 H-2; test: Callus herbicide tolerance, line H-2; assay type: cell-based, maize; conditions: cell line H-2
Procedure: as §1, §2

[3] = system: cell line 2167-9/2160-154 S-1; test: Callus herbicide tolerance, line S-1; assay type: cell-based, maize; conditions: cell line S-1
Procedure: as §1, §2

[4] = system: acetyl-coenzyme A carboxylase (ACCase) (EC 6.4.1.2) in maize chloroplasts; test: Acetyl-Coenzyme A Carboxylase (ACCase) activity of maize chloroplasts; assay type: biochemical
Procedure: Maize chloroplasts, isolated as described above, were suspended in buffer C (0.1 M Tricine-KOH, pH 8.0; 0.3 M glycerol, and 1 mM DTT) and homogenized in a glass tissue homogenizer. The disrupted chloroplast fraction was centrifuged at 16,000 g for 15 minutes. The supernatant was desalted on a Sephadex G-25 column (1.5×5 cm equilibrated with 0.1 M Tricine-KOH, pH 8.0; and 0.3 M glycerol) and assayed directly. ACCase activity (B. J. Nikolau et al., Arch. Biochem. Biophys., 211, 605-612 (1981)) was assayed at 30° C. in a 0.2 ml volume which contained 1 mM ATP, 3 mM acetyl coenzyme A, 2.5 mM MgCl2, 50 mM KCl, 0.5 mM DTT, and 15 mM [^14C]NaHCO3 (0.17 mCi/mmol). Reactions were initiated by addition of acetyl coenzyme A and stopped by addition of 25 μl of 12 N HCl. Product formation was determined by the radioactivity found in an acid stable fraction by liquid scintillation spectrometry. Enzyme activity was linear for 15 minutes.

[5] = system: fatty acid synthesis in corn seedling chloroplasts; test: [14C]acetate and [14C]pyruvate incorporation into fatty acids in isolated chloroplasts; assay type: biochemical, Corn (Z. mays L.); conditions: 10 minute assay time, mean of two experiments ± standard error
Procedure: Corn (Z. mays L., ‘B37×Oh43’) seeds were germinated in darkness for 96 hours in vermiculite in an incubation chamber maintained at 30° C., 80% RH. Seedlings were then transferred to a growth chamber with a 16 hour light (25° C.) and an 8 hour dark (20° C.) cycle, 90% relative humidity (RH). After greening 48 hours, seedlings were returned to the dark incubation chamber for 12 hours to deplete chloroplast starch reserves. Seedlings were harvested 6 days after planting. Pea (P. sativum L., ‘PI 9901-C’) seedlings were grown in vermiculite in a growth chamber with a 16 hour light (21° C.) and 8 hour dark (16° C.) cycle, 80% RH. Peas were harvested 10 to 13 days after planting. Black Mexican Sweet (BMS) corn suspension cultures were maintained in a supplemented Murashige-Skoog (MS) medium (C. E. Green, Hort. Sci., 12, 7-10 (1977)), and subcultured weekly by 20-fold dilution of the suspension culture into fresh medium.
Chloroplasts from corn and pea seedlings were isolated at 4° C. (K. Cline et al., J. Biol. Chem., 260, 3691-3696 (1985)). Seedlings (50 g of shoots) were homogenized in 200 ml buffer A (50 mM HEPES-NaOH pH 7.5, 330 mM sorbitol, 0.1% w/v BSA, 1 mM MgCl2, 1 mM MnCl2, 2 mM EDTA, 5 mM isoascorbate, 1.3 mM glutathione) in an omnimixer (five, 3-second bursts at full speed). The homogenate was filtered through six layers of cheesecloth and two layers of miracloth, and then centrifuged at 3000 g for 3 minutes with hand-braking. The pellet was gently resuspended in buffer A and layered onto a preformed linear Percoll gradient (50 mM HEPES-NaOH pH 7.5, 330 mM sorbitol, 1.9 mM isoascorbate, 1.08 mM glutathione, 0.1% w/v BSA, 50% Percoll) which was centrifuged at 3000 g for 20 minutes in a Sorvall HB-4 rotor. The lower band in the gradient, containing intact chloroplasts, was washed twice by gently resuspending it in 20 ml of buffer B (50 mM HEPES-NaOH, pH 7.5, and 330 mM sorbitol) followed by repelleting (3000 g, 5 minutes). The final pellet, consisting of intact chloroplasts, was resuspended in 2 to 3 ml of buffer B and stored on ice in the dark until use.
[^14C]acetate and [^14C]pyruvate were used as precursors to measure fatty acid biosynthesis in isolated chloroplasts (B. Liedvogel et al., Planta, 169, 481-489 (1986)). [^14C]acetate incorporation was assayed in a 0.5 ml-volume containing: 50 mM HEPES-NaOH (pH 7.5), 330 mM sorbitol, 5 mM KH2PO4, 10 mM NaHCO3, 1 mM MgCl2, 1 mM ATP, 0.1 mM CoA, 0.15 mM [^14C]acetate (3.33 mCi/mmol), and chloroplasts (20 to 50 μg chlorophyll). [^14C]pyruvate incorporation into fatty acids was assayed in the same medium except that it included 2 mM TPP, 1 mM NAD^+, 0.15 mM [^14C]-pyruvate (1.33 mCi/mmol), but no acetate. […] Aliquots (50 μl) were counted for radioactivity by liquid scintillation spectrometry.

SMILES	Fold increase in herbicide concentration that results in a 50% reduction in growth vs unselected control cell line [1] [fold]	Fold increase in herbicide concentration that results in a 50% reduction in growth vs unselected control cell line ([1]; listed as sethoxydim)	Fold increase in herbicide concentration that results in a 50% reduction in growth vs unselected control cell line [2] [fold]	Fold increase in herbicide concentration that results in a 50% reduction in growth vs unselected control cell line ([2]; listed as sethoxydim)	Fold increase in herbicide concentration that results in a 50% reduction in growth vs unselected control cell line [3]	Effect on ACCase in maize chloroplasts [4]	% Inhibition of [14C]acetate incorporation into fatty acids ([5]; Sethoxydim 10 μM) [%]	% Inhibition of [14C]pyruvate incorporation into fatty acids ([5]; Sethoxydim 10 μM) [%]	Fold increase in herbicide concentration that results in a 50% reduction in growth vs unselected control cell line ([1]; listed as haloxyfop) [fold]	Fold increase in herbicide concentration that results in a 50% reduction in growth vs unselected control cell line ([2]; listed as haloxyfop)	Fold increase in herbicide concentration that results in a 50% reduction in growth vs unselected control cell line ([3]; listed as haloxyfop)	% Inhibition of [14C]acetate incorporation into fatty acids ([5]; Haloxyfop 1 μM) [%]	% Inhibition of [14C]pyruvate incorporation into fatty acids ([5]; Haloxyfop 1 μM) [%]
CCCC(=NOCC)C1=C(O)CC(CC(C)SCC)CC1=O (centres unmarked) [Sethoxydim, 2-[1-(ethoxyimino)-butyl]-5-[2-(ethylthio)propyl]-3-hydroxy-2-cyclohexen-1-one]	0	Neither haloxyfop selected line showed a significant degree of sethoxydim tolerance	0	Neither haloxyfop selected line showed a significant degree of sethoxydim tolerance	~100 fold	inhibit	90	98	–	–	–	–	–
CC(Oc1ccc(Oc2ncc(C(F)(F)F)cc2Cl)cc1)C(=O)O (centres unmarked) [Haloxyfop, 2-[4-[[3-chloro-5-(trifluoromethyl)-2-pyridinyl]oxy]phenoxy]-propanoic acid]	61	–	4	–	4^1 fold	inhibit	–	–	~60	four-fold increase	four-fold increase	89	99
